The values below come from patent EP0465913B1, “Diaminotrifluoromethylpyrimidine derivatives, process for their production and phospholipase A2 inhibitor containing them” (ISHIHARA SANGYO KAISHA, LTD., priority 1990, dated 1992).

SMILES strings stand for the structures.

The term inhibition denotes the relative decrease from the control value, in per cent.

T1 sequence (P00592 23-146): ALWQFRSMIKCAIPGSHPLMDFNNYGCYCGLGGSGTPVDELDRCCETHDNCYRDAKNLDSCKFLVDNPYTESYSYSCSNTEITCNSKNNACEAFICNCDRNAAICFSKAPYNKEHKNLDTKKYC

One test has as its target T1, Porcine pancreatic phospholipase A2 (Sus scrofa, UniProt P00592).
T1 construct: purchased Boehringer Mannheim·Yamanouchi K.K. 161454·122416
Briefly: Phospholipase A2 inhibitory activity, method B (L-α-dipalmitoylphosphatidylcholine substrate). It counts as biochemical. The settings on record: 37°C for 30 minutes. The method, then:
To a solution prepared by dissolving 9.2 mg of L-α-dipalmitoylphosphatidylcholine (manufactured by Nichiyu Liposome K.K.) in 0.5 ml of chloroform, a solution prepared by dissolving 32 mg of sodium cholate (manufactured by Wako Pure Chemical Industries, Ltd.) in 0.5 ml of methanol, was added, followed by mixing. The solvent of the mixture was removed under a nitrogen stream, and then 2.5 ml of a 250 mM sodium chloride solution [prepared by dissolving sodium chloride in a 100 mM Tris-HCl buffer solution {tris(hydroxymethyl)aminomethane (manufactured by Nacalai Tesque K.K.) was adjusted to pH8.0 with hydrochloric acid}] was added thereto, and the mixture was dissolved under stirring to obtain a substrate.
Porcine pancreatic phospholipase A2 [(161454·122416) manufactured by Boehringer Mannheim·Yamanouchi K.K.] was used.
To a 96 well microtitration plate, 20 µl of a solution containing calcium chloride, bovine serum alubmin (manufactured by Sigma Chemical, Co.) and a Tris-HCl buffer solution (pH8.0) at concentrations of 25 mM, 4.5 mg/ml and 100 mM, respectively, 5 µl of a solution prepared by dissolving 10 mg of a test compound in 500 µl of diemthylsulfoxide, followed by an addition of 500 µl of a 200 mM Tris-HCl buffer solution, 5 µl of an enzyme solution (10 µg/ml) [prepared by dissolving the enzyme in a bovine serum alubmin solution (prepared by dissolving bovine serum alubmin in a 100 mM Tris-HCl buffer solution at a concentration of 1 mg/ml)] and 20 µl of the substrate, were added and reacted at 37°C for 30 minutes. After termination of the reaction, the released free fatty acid was quantitatively analyzed in accordance with the ACS-ACOD (acyl CoA synthetase-acyl CoA oxidase) method [a kit of NEFA C test wako (manufactured by Wako Pure Chemical Industries, Ltd.) was used]. The quantitative analysis was made by means of Microplate ELISA Reader (Model 2550EIA Reader, manufactured by Bio-Rad Laboratories) at a wavelength of 540 nm. Separately, such experiments as mentioned above, were carried out at various concentrations (1 µg/ml, 0.75 µg/ml, 0.5 µg/ml and 0.25 µg/ml) of phospholipase A2 without a test compound. Then, the concentration of the free fatty acid versus the concentration of phospholipase A2 was plotted.
From this standard curve, the apparent concentration of phospholipase A2 in the case with a test compound, was read. Then, the percent inhibition of the enzyme was calculated by the following formula. Percent inhibition (%) = (l -(A)/(B)) x 100 [formula] • A: Apparent enzyme concentration when a test compound is added. • B: True enzyme concentration when a test compound is added.
On to `CS(=O)(=O)Nc1ncc(C(F)(F)F)cc1NC(=O)C(F)(F)C(F)(F)F` [compound 260], for which the “% inhibition of PLA2 (1,000 ppm)” value was 53%.

Still in this test, the particulars now being: 1,000 ppm, 37°C for 30 minutes, read-out: % inhibition of PLA2 (1,000 ppm).
In the case of `CS(=O)(=O)Nc1ncc(C(F)(F)F)cc1NC(=O)CCc1ccccc1` [compound 64], the inhibition at 1000 ppm turned out to be 61%.
The same measure, in the same setting: the figure for `CN(C)S(=O)(=O)Nc1ncc(C(F)(F)F)cc1NC(=O)C1CCCC1` [compound 111] is 41%; for `CCS(=O)(=O)Nc1ncc(C(F)(F)F)cc1NC(=O)c1ccc(C(F)(F)F)cc1` [compound 100] it is 83%.
Still for that read-out and setting: with `CCCCS(=O)(=O)Nc1ncc(C(F)(F)F)cc1NC(=O)C(F)(F)Cl` [compound 108] the figure was 61%; with `CCS(=O)(=O)Nc1ncc(C(F)(F)F)cc1NC(=O)C1CC=CCC1` (centres unmarked) [compound 95], 85%; with `CS(=O)(=O)Nc1ncc(C(F)(F)F)cc1NC(=O)C=Cc1ccccc1` [compound 71], 77%.
As to `O=C(Nc1cc(C(F)(F)F)cnc1NS(=O)(=O)C(F)(F)F)c1cccs1` [compound 92], the inhibition at 1000 ppm came to 75%.
On the same count and under the same terms, the figure for `CC(C)=CC(=O)Nc1cc(C(F)(F)F)cnc1NS(C)(=O)=O` [compound 70] is 40%; for `CC(C)S(=O)(=O)Nc1ncc(C(F)(F)F)cc1NC(=O)C1CCCCC1` [compound 103] it is 86%; for `CS(=O)(=O)Nc1ncc(C(F)(F)F)cc1NC(=O)c1cc2c(s1)CCC2` [compound 88] it is 83%.
On to `CCOS(=O)(=O)Nc1ncc(C(F)(F)F)cc1NC(=O)c1ccc2c(c1)CCC2` [compound 118], for which the inhibition at 1000 ppm turned out to be 84%.
Take `CS(=O)(=O)Nc1ncc(C(F)(F)F)cc1NC(=O)c1ccsc1` [compound 84]: the inhibition at 1000 ppm came to 56%.
For the compound `CS(=O)(=O)Nc1ncc(C(F)(F)F)cc1NC(=O)c1ccc(F)cc1F` [compound 76], the inhibition at 1000 ppm is 61%.
On the same count and under the same terms, the figure for `O=C(Nc1cc(C(F)(F)F)cnc1NS(=O)(=O)c1cccs1)C1CCCCC1` [compound 126] is 84%; for `COS(=O)(=O)Nc1ncc(C(F)(F)F)cc1NC(=O)c1ccc2c(c1)CCC2` [compound 116] it is 69%.
On to `COc1ccc(S(=O)(=O)Nc2ncc(C(F)(F)F)cc2NC(=O)c2cccs2)cc1` [compound 109], for which the inhibition at 1000 ppm was 67%.
The same measure, in the same setting: with `CS(=O)(=O)Nc1ncc(C(F)(F)F)cc1NC(=O)C(=O)c1ccccc1` [compound 90] the figure was 79%; with `CN(C)S(=O)(=O)Nc1ncc(C(F)(F)F)cc1NC(=O)C(F)(F)C(F)(F)F` [compound 112], 79%; with `CS(=O)(=O)Nc1ncc(C(F)(F)F)cc1NC(=O)C#Cc1ccccc1` [compound 75], 81%.
Turning to `O=C(Nc1cc(C(F)(F)F)cnc1NS(=O)(=O)c1cccs1)c1ccc2c(c1)CCC2` [compound 127], the inhibition at 1000 ppm came out at 89%.
Same read-out and setting: the figure for `COS(=O)(=O)Nc1ncc(C(F)(F)F)cc1NC(=O)C1CCCCC1` [compound 115] is 52%; for `CC(Cl)(Cl)C(=O)Nc1cc(C(F)(F)F)cnc1NS(C)(=O)=O` [compound 89] it is 51%; for `CCS(=O)(=O)Nc1ncc(C(F)(F)F)cc1NC(=O)c1cccc(C(F)(F)F)c1` [compound 99] it is 86%.

A further test deals with experimental acute pancreatitis model. Put plainly: Effects against acute pancreatitis (Test Example 8, closed duodenal loop method, lesion scores). It counts as in vivo, Crj-CD male rats. The following applies: Rattus norvegicus; 10 mg/kg single intravenous injection, sodium salt, 6 hours after ventrotomy; read-out: Inhibition rate of hemorrhagic lesions (%). The method, then:
Using Crj-CD male rats, each test group consisted of 3 rats. An experimental acute pancreatitis model was prepared by a closed duodenal loop method under anethesia with halothane (manufactured by Hoechst Japan) and nitrous oxide (manufactured by Sumitomo Seika K.K.) applied by a general inhalation anesthesia machine (Model EM2 and halothane evaporator F-Model). Each compound (subjected to the test in the form of a sodium salt) was continuously intravenously injected into the tail vein in an amount of 0.4 ml/100 g to 0.6 ml/100 g at a rate of 0.05 ml per minute by a pump (Technicon AA II Proportioning Pump III, manufactured by Technicon Instruments Corporation) or rapidly intravenously injected. No injection was made to a control group. Gross pathological examination was conducted upon expiration of 6 hours after the ventrotomy in the case of the group to which the compound was administered. With respect to each of four lesions among pancreatic lesions i.e. petechia, ecchymosis, pancreatic necrosis and abdominal fatty necrosis, the grade and the distribution of lesions were scored with five grades of 0, 0.5, 1, 2 and 3 (severe lesions are 3). The sum of all lesions was designated as scores of pancreatitis lesions, and the sum of the score of petechia and the score of ecchymosis only was designated as scores of hemorrhagic lesions. The pancreatitis inhibition rate (%) and the hemorrhage inhibition rate (%) were obtained by the following formulas, and the results are shown in Table 13. Pancreatitis inhibition rate (%) = (l -(H)/(G)) x 100 [formula] • H: Scores of pancreatitis lesions of the group to which a test compound was administered. • G: Scores of pancreatitis lesions of the control group. Hemorrhage inhibition rate (%) = (l -(J)/(I)) x 100 [formula] • J: Scores of hemorrhagic lesions of the group to which a test compound was administered. • I: Scores of hemorrhagic lesions of the control group.
Turning to `CS(=O)(=O)Nc1ncc(C(F)(F)F)cc1NC(=O)CCc1ccccc1` [compound 64], the inhibition in vivo at 10 mg/kg amounted to 60%.
The same measure, in the same setting: the figure for `CS(=O)(=O)Nc1ncc(C(F)(F)F)cc1NC(=O)c1ccc2c(c1)OCCO2` [compound 34] is 30%; for `CS(=O)(=O)Nc1ncc(C(F)(F)F)cc1NC(=O)c1ccc2c(c1)OCC(F)(F)O2` [Compound No. 35] it is 35%.
Same read-out and setting: the figure for `CCCCS(=O)(=O)Nc1ncc(C(F)(F)F)cc1NC(=O)C1CC1` [compound 107] is 63%.

The test is the same for the next values; noted with them: Rattus norvegicus; 10 mg/kg single intravenous injection, sodium salt, 6 hours after ventrotomy; read-out: Inhibition rate of pancreatitis lesions (%).
Consider `CS(=O)(=O)Nc1ncc(C(F)(F)F)cc1NC(=O)CCc1ccccc1` [compound 64], for which the inhibition in vivo at 10 mg/kg is 68%.
As for `CS(=O)(=O)Nc1ncc(C(F)(F)F)cc1NC(=O)c1ccc2c(c1)OCCO2` [compound 34], the inhibition in vivo at 10 mg/kg came out at 30%.
For the compound `CS(=O)(=O)Nc1ncc(C(F)(F)F)cc1NC(=O)c1ccc2c(c1)OCC(F)(F)O2` [Compound No. 35], the inhibition in vivo at 10 mg/kg was determined as 35%.
Regarding `CCCCS(=O)(=O)Nc1ncc(C(F)(F)F)cc1NC(=O)C1CC1` [compound 107], the inhibition in vivo at 10 mg/kg is 61%.
